# Assay: in vitro
# Conditions: human, hela cells, % viability
row,SMILES,"viability at 28.5 h, 10 µM [%]"
1,COc1ccc(CN2CCc3cc(OC)c(OC)cc3C2c2ccccc2)cc1CO (centres unmarked) [CBK286358],92.2
2,CCOC(=O)CC(=O)Nc1c(Br)cc(Br)cc1C(=O)O [CBK261412],95.2
3,CN(C)S(=O)(=O)N(CC(=O)Nc1ccc2c(c1)OCO2)c1ccccc1 [CBK268481],110
4,O=C(O)c1snnc1-c1ccccc1 [CBK021545],90.9
5,CCn1cc(C(=O)N2CCCC2c2nc3ccccc3[nH]2)cn1 (centres unmarked) [CBK283776],109
6,CC(C)NC(=O)CN(CCO)Cc1cc(Br)ccc1F [CBK304944],90.7
7,CCn1c(C)nnc1SCCNC(=O)c1cnc(N(C)C)nc1C [CBK307135],93
8,Cc1cc(C)n(C2CCN(Cc3cnn(C4CCCCC4)c3)CC2)n1 [CBK281804],89.2
9,COc1cc(C)nc(OCCNS(=O)(=O)c2cc(C)ccc2C)n1 [CBK058870],91.9
10,Cc1cc(NC(=O)c2cc(Cl)ccc2[N+](=O)[O-])nc2c1c(=O)oc1ccccc12 [CBK291248],85.9
11,c1csc(-c2cn3ccnc3c(NC3CC3)n2)c1 [CBK066712],108
12,CCNS(=O)(=O)c1ccc2c(c1)N(Cc1csnn1)CC2 [CBK306161],74.3
13,CC1(C)C(=O)N2CCN=C2c2ccccc21 [CBK009903],78.6
14,CCCCN1CCC2CN(CCCC(c3ccc(F)cc3)c3ccc(F)cc3)CCN2C1=O (centres unmarked) [CBK024880C],99.5
15,COc1ccc(C(=O)Nc2nc3c(C)c(C)ccc3s2)cc1 [CBK291210],107
16,CC(=O)[C@H]1C[C@@H](CC(=O)Nc2ccc(Cl)nc2)C1(C)C [CBK091338],97.7
17,O=C(Nc1ccc(-n2cc(Cl)cn2)cc1)c1ccncc1 [CBK270249],88.2
18,Cc1cccnc1C(NC(=O)C1CCN(CCOc2ccccc2)CC1)c1ccc(F)cc1 (centres unmarked) [CBK147892],91.8
19,COCC(C)NC(=O)Cn1c(-c2ccc(F)cc2)cc2cccnc21 (centres unmarked) [CBK284863],113
20,CCc1cc(=O)oc2cc(OCC(=O)O)c(Cl)cc12 [CBK265182],93.9
21,Cc1cccn2c(CN3CCC(O)CC3)c(C(=O)N3CCOCC3)nc12 [CBK306546],104
22,CS(=O)(=O)c1ccc(C(=O)N(Cc2ccccc2)c2ccc(S(=O)(=O)N3CCOC3=O)cc2)cc1 [CBK024590],110

row,SMILES,"viability at 28.5 h, 10 µM [%]"
1,OC1(CCCN2CCOCC2)C2CCCC1CN(Cc1ccccc1)C2 (centres unmarked) [CBK025076C],115
2,COc1cnc(-c2ccccc2)c(NC(C)=O)n1 [CBK145410],93.4
3,COC(=O)c1c(NC(=S)Nc2ccc(Br)cn2)sc2c1CCC2 [CBK266862],92.9
4,COc1ccc2c(c1)CC(=O)NC21CCN(Cc2c(F)cccc2F)CC1 [CBK039835],93.8
5,O=C(NCCCc1ccc(Cl)cc1)c1cc2c([nH]c1=O)CCC2 [CBK281560],89
6,CCc1nn(CC(=O)N(C(C)C)C(C)C)c(=O)c2cc3occc3n12 [CBK283658],89.3
7,COc1ccc(/C=C/C(=O)O)cc1S(=O)(=O)N1CCCCCC1 [CBK263565],87.8
8,Cc1nn(CCNC(=O)C2CC(=O)N(CC(C)C)C2)c(C)c1C (centres unmarked) [CBK281630],88
9,O=[N+]([O-])c1cccc(/C=N/Nc2nc(-c3ccccc3)cc(-c3ccccc3O)n2)c1 [CBK261722],95.8
10,COc1ccc(-n2cc(-c3ccc(F)cc3)nn2)cc1OC [CBK113110],89.8
11,Cc1ccc(S(=O)(=O)N2/C(=C\COc3ccc(Cl)cc3Cl)C(N3CCOCC3)c3ccccc32)cc1 (centres unmarked) [CBK262740],87.6
12,Cc1ccc(C(=O)NCC2COc3ccccc3O2)c(N2CCOCC2)n1 (centres unmarked) [CBK076519],106
13,Cc1cc(C)c(S(=O)(=O)N2CCC(C(=O)NNC(=S)NC3CCCC3)CC2)c(C)c1 [CBK266844],98.4
14,O=C(O)c1ccc(/C=C/C(=O)c2ccc3c(c2)OCCO3)cc1 [CBK262173],89.1
15,Cc1nc(NC(=O)Cn2nc(N3CCSCC3)ccc2=O)sc1C [CBK307622],98.3
16,CCCN1CCC(N(C)CCN(CC)CC)CC1 [CBK261935],104
17,CC(=O)Nc1ccc(NC(=O)/C=C/c2ccc(Cl)cc2)cc1 [CBK264766],116
18,CC(C)(CO)CNc1cncc(-c2cccc(C(F)(F)F)c2)n1 [CBK065248],102
19,C[C@H](Nc1nccnc1-c1cccc(O)c1)c1ccccc1 [CBK037180],106
20,O=C(Cn1cccc(C(=O)Nc2ccc(F)cc2)c1=O)Nc1nc2c(s1)CCCCC2 [CBK286055],84.7
21,Cc1ccc(NC(=O)N(Cc2ccc3ccccc3c2)CC2CCNCC2)cc1[N+](=O)[O-] [CBK049771],100
22,O=C(Nc1c(F)cc(F)cc1OC1CCNCC1)c1ccnc2ccccc12 [CBK050277T],94.9

row,SMILES,"viability at 28.5 h, 10 µM [%]"
1,CN1CCN(c2ncc(-c3ccc(N4CCOCC4)cc3)n3ccnc23)CC1 [CBK091226],103
2,OCc1ccccc1-c1nccnc1NCCc1cccnc1 [CBK037444],94
3,c1ccc(CCN2CCC(Cc3ccccc3)CC2)cc1 [CBK126434],96.3
4,O=C(O)c1cccc(Nc2nc(-c3ccccc3)nc3ccccc23)c1 [CBK263941C],97.6
5,Cc1ccc([N+](=O)[O-])cc1NC1OC(C(O)CO)C(O)C1O (centres unmarked) [CBK262031],98
6,CCOc1ccc(Nc2nc(-c3ccc(C)cc3C)c(CC(=O)O)s2)cc1 [CBK264187],62.5
7,O=[N+]([O-])c1ccc(CN2CCC(Oc3nccnc3OCC3COc4ccccc4O3)CC2)cc1 (centres unmarked) [CBK082984T],99.1
8,Cc1cc(CC(=O)Nc2ccc3[nH]ccc3c2)on1 [CBK159690],103
9,O=C(Nc1cccc(CCc2ccccn2)c1)c1ccc([N+](=O)[O-])cc1 [CBK269653],86.9
10,Cc1cc(C)n(CC(=O)Nc2cccc(CCc3ccncc3)c2)c(=O)n1 [CBK285555],105
11,COc1ccc(NC(=O)C(C)Sc2nc(N)cc(O)n2)cc1 (centres unmarked) [CBK265699],106
12,Cc1ccn(CCNC(=O)c2cc(-c3cccs3)no2)n1 [CBK282679],78.9
13,Cn1ccnc1CN1CCC2(C/C=C/Cc3ccccc3OCC(=O)NCCNC2=O)CC1 [CBK292180],95.7
14,O=C(CC1Sc2ccc(Cl)cc2NC1=O)Nc1ccc([N+](=O)[O-])cc1 (centres unmarked) [CBK264860],98
15,CCC(C)NC1=NC(=O)C(CC(=O)N(C)c2ccccc2)S1 (centres unmarked) [CBK059110T],83.3
16,CC1CCCC(C)N1S(=O)(=O)c1ccc(NC(=O)CCn2cnc3ccccc3c2=O)cc1 (centres unmarked) [CBK267643],95.5
17,COc1cc(CN2CCC(N3CCCCCC3)CC2)ccc1OCc1ccccc1 [CBK264709G],90.6
18,CCCCC(NS(=O)(=O)Cc1ccccc1)C(=O)O (centres unmarked) [CBK286798],91.1
19,OC(COc1c(Br)cccc1Br)CN1CCCCC1 (centres unmarked) [CBK003077T],90.9
20,CN(C)C(=O)CO[C@@H]1CO[C@H]2[C@@H]1OC[C@@H]2Nc1nccc(-c2cccs2)n1 [CBK289515],109
21,Cc1nn(C)c(C)c1CNC(=O)N1CCN(CC(F)F)CC1 [CBK304249],102
22,Cc1ccc(C(=O)O)cc1NS(=O)(=O)c1ccc2c(c1)OCCO2 [CBK297497],90.7

row,SMILES,"viability at 28.5 h, 10 µM [%]"
1,COc1cccc2sc(NC(=O)c3c(F)cccc3F)nc12 [CBK149283],95.5
2,COc1ccc(C(=O)NCC(=O)NCCOC(=O)c2c(-c3c(F)cccc3Cl)noc2C)cc1 [CBK007386],99.4
3,O=C(O)c1ccc(NC(=O)c2ccc(S(=O)(=O)N3CCCCC3)cc2)cc1 [CBK267813],94.2
4,CN(C)CCCNc1ccc(C(F)(F)F)cn1 [CBK269414],86.2
5,Cc1cccnc1Nc1nc(-c2ccccn2)cs1 [CBK267272],91.5
6,Cc1ccc(C2(C(=O)NCCn3ccnc3C)CCOCC2)cc1 [CBK281858],95
7,CCc1cc(=O)[nH]c(-c2ccc(N3CCCC3C(=O)N(C)C)nc2)n1 (centres unmarked) [CBK304197],89.2
8,CN1CCN(CC2(CNC(=O)c3ccc(C(=O)O)cc3)CC2)CC1 [CBK307517],102
9,Clc1ccc(COc2nccnc2OC2CCN(Cc3ccc4c(c3)OCO4)CC2)cc1Cl [CBK083109T],86.6
10,OCCN(Cc1cccnc1)Cc1cccn1-c1ccccc1F [CBK283019],92.2
11,CCNC(=O)CN(CC)S(=O)(=O)c1cccc(C#N)c1 [CBK306481],90.1
12,NCc1ccc(C(=O)N(CCc2cc(C(F)(F)F)cc(C(F)(F)F)c2)c2ccc(Cl)c(Cl)c2)cc1 [CBK008632T],112
13,CN1CCC(N(C)C(=O)c2ccc3nccnc3c2)CC1 [CBK269096],108
14,Nc1nnc(CSc2cccc3cccnc23)o1 [CBK021397],108
15,CCn1cc(C(C)NC(=S)Nc2ccc(OC)cc2OC)c(C)n1 (centres unmarked) [CBK266950],90
16,Cc1ccc(S(=O)(=O)NC(=O)N2CC3(C)CC2CC(C)(C)C3)cc1 (centres unmarked) [CBK023512],110
17,Cc1cc(C)n(C(C)C(=O)N2CCC(Nc3cccnc3)CC2)n1 (centres unmarked) [CBK305917],94.2
18,Cn1ccc(CN2CCOC(c3nccs3)C2)cc1=O (centres unmarked) [CBK304921],88.8
19,CS(=O)(=O)c1ccc(NC(=S)N2CCN(c3ccc(F)cc3)CC2)cc1 [CBK300507],95.3
20,CN(C)S(=O)(=O)c1cccc(-c2cn3cccnc3n2)c1 [CBK267580],71.4
21,COc1cccc(-c2cnc(N(C)S(C)(=O)=O)c(C(=O)NC3CCCCC3)c2)c1 [CBK106446],109
22,O=S(=O)(c1ccc(-n2cnc(Cl)c2Cl)cc1)N1CCCN(Cc2csc(-c3ccccc3)n2)CC1 [CBK062790],104

# Same assay, conditions: human, hela cells, % viability, bulk resorufin, single well
row,SMILES,"viability at 28.5 h, 10 µM [%]"
1,CCC(C(=O)c1c[nH]c2ccc(OC)cc12)N(C)C (centres unmarked) [CBK022923],96
